Source: patent US10413535B2, “Pharmaceutical compositions comprising an integrin ALPHA4 antagonist for use in treating ocular inflammatory conditions” (AXEROVISION, INC., priority 2015, dated 2019)

Assays:
[1] = system: 53 receptors and 4 transporters; assay: MDS Pharma screen, radioligand binding assays; conditions: at 10 μM
[2] = system: RPMI 8866 binding to CS-1; assay: CS-1 cell adhesion assay, RPMI 8866 cells; assay type: cell-based; conditions: Homo sapiens; RPMI 8866 cells to CS-1; identical duplicate values; read-out: Inhibition of cell adhesion (IC50)
Experimental: Jurkat J6 cells (human lymphoblast cell line) were grown as a suspension culture in RPMI 1640 supplemented with FCS (10%) and glutamine (2 mM). RPMI8866 cells (human B lymphoid cell line) were grown as a suspension culture in RPMI 1640 supplemented with FCS (10%) and glutamine (2 mM). RBL-2H3 cells (rat basophilic cell line) were cultured in Eagle's MEM plus Earles salts supplemented with 2 mM L-glutamine, 1 mM sodium pyruvate, 1× non-essential amino acids, 1 mM Na pyruvate 10% heat inactivated foetal calf serum.
Polystyrene 96-well microtitre plates were coated with CS-1 (connecting segment 1, a cell attachment domain of fibronectin) at a concentration of 0.01 mg/mL in bicarbonate buffer overnight at 4° C. The solution was aspirated and the plates washed twice with PBS. The plates were then incubated at room temperature in the presence of 3% BSA for 60 min, ‘flicked’ to expel the BSA and washed twice in bicarbonate buffer. J6 or RPMI cells (as required) were labelled with the fluorescent dye BCECF-AM (10 μM and 6×10^6 cells/mL) for 10 min at 37° C. before the excess was removed by centrifugation at 500 g for 5 min and the cells resuspended at a cell concentration of 1.2×10^7 cells/mL in HBSS. Equal volumes of HBSS containing the compound of formula I (over concentration range 19.0 pM to 5 μM) and cells were added to the CS-1 coated plates. […] The plates were counted in a Wallac Viktor.

In the case of `Cc1ccccc1OCC(=O)N[C@@H](CC(C)C)C(=O)N[C@@H](Cc1ccc(OC(=O)N2CCC(C(N)=O)CC2)cc1)C(=O)O` [GW559090, (2S)-3-[4-({[4-(Aminocarbonyl)-1-piperidinyl]carbonyl}oxy)phenyl]-2-[((2S)-4-methyl-2-{[2-(2-methylphenoxy)acetyl]amino}pentanoyl)amino]propanoic acid], the “Inhibition in radioligand binding assays” value [1] is reported as “No significant inhibition” and the IC50 [2] is reported as 24.5 nM.
